# PMC12042122, “The GntR/VanR transcription regulator AlkR represses AlkB2 monooxygenase expression and regulates n‐alkane degradation in Pseudomonas aeruginosa SJTD‐1” (mLife, 2025)
# Assays:
# AlkR = molecular target: T1, AlkR (Pseudomonas aeruginosa, UniProt Q9I3I7); experiment: EMSA, release of AlkR from alkB2 promoter DNA; format: binding; conditions: AlkR 5.8 × 10^-7 M, P3 DNA fragment 5 × 10^-7 M, pH 7.5, 37 °C; not an IC50
# T1 construct: gene PA1526
# T1 sequence (Q9I3I7 1-219): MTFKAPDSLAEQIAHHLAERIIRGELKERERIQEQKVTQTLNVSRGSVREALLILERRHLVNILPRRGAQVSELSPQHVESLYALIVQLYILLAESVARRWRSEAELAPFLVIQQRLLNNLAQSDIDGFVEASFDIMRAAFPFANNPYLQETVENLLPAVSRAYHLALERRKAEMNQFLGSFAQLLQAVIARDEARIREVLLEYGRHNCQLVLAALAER
# [1] = molecular target: AlkR, GntR/VanR transcription regulator of Pseudomonas aeruginosa SJTD-1 (Pseudomonas aeruginosa SJTD-1); experiment: cross-linking; purified recombinant AlkR treated with sulfo-EGS, detected by 8% native PAGE
# [2] = molecular target: AlkR, GntR/VanR transcription regulator of Pseudomonas aeruginosa SJTD-1 (Pseudomonas aeruginosa SJTD-1); experiment: SEC; size exclusion chromatography of purified recombinant AlkR; conditions not given
Compound,concentration for effective dissociation of the AlkR/DNA complex (AlkR),stoichiometry N [1],stoichiometry N [2]
"CCCCCCCCCCCCCCCC(=O)SCCNC(=O)CCNC(=O)[C@H](O)C(C)(C)COP(=O)(O)OP(=O)(O)OC[C@H]1O[C@@H](n2cnc3c(N)ncnc32)[C@H](O)[C@@H]1OP(=O)(O)O [C16-CoA, palmitoyl coenzyme A]",~ 150 μM,,
"CCCCCCCC/C=C\CCCCCCCC(=O)SCCNC(=O)CCNC(=O)[C@H](O)C(C)(C)COP(=O)(O)OP(=O)(O)OC[C@H]1O[C@@H](n2cnc3c(N)ncnc32)[C@H](O)[C@@H]1OP(=O)(O)O [C18-CoA, oleyl coenzyme A]",~ 80 μM,,
"AlkR, GntR/VanR transcription regulator of Pseudomonas aeruginosa SJTD-1 (natural protein)",,2,2
